Reference: a melting point compilation (Tetko et al.; mined from patent text by program, amines drawn as free bases though some values may be those of a salt)

Row | Structure (SMILES) | melting point [°C]
1 | CC(C)(C)NC(=O)[C@@H]1C[C@H](Cl)CN1C(=O)[C@@H](O)[C@H](Cc1ccccc1)NC(=O)[C@H](CC(N)=O)NC(=O)c1cnc2ccccc2n1 | 132 to 134
2 | COc1ccc2c(c1)N(c1ccc(F)cc1)C(=O)C2(C)NC(=O)OCc1ccccc1 (stereo not drawn) | 167 to 169
3 | CC(C)(NC(=O)c1cc2c(n(CC3CCCCC3)c1=O)CCCCCC2)C(=O)O[C@H]1CO[C@H](c2ccccc2)OC1 | 166 to 168
4 | CCOP(=O)(OCC)Oc1c(C2CCN(CCCCNC(=O)c3ccc(-c4ccc(C#N)cc4)cc3)CC2)ccc2c1CCCC2 | 90
5 | O=C(O)c1cc2c(=O)n(-c3ccccc3)c3ccccc3n2c1 | 304 to 306
6 | C(=Cc1cnc2[nH]c3ccccc3c2c1)c1ccccc1 | > 220
7 | COc1cc(Oc2cccc(C(F)(F)F)c2)nc(C(=O)NN=CCC#N)c1 | 98 to 100
8 | O=C(NC(CCl)c1ccc(-c2ccc(S(=O)(=O)C(F)F)cc2)cc1)c1c(F)cccc1F (stereo not drawn) | 146 to 149
9 | CC(=O)NNC1=Nc2sc(Cl)cc2C(c2ccccc2Cl)=NC1 | 211 to 213
10 | N#CC1(Nc2cccc(Cl)c2)CCN(C(=O)c2cc(C(F)(F)F)cc(C(F)(F)F)c2)CC1 | 205 to 207
11 | CS(=O)c1ccc2[nH]c3cc(C(=O)Nc4nnn[nH]4)nn3c(=O)c2c1 (stereo not drawn) | > 350
12 | N#Cc1cc(C=NO)ccc1-n1cncn1 | 198 to 200
13 | Fc1ccc(Cn2c(NC3CCN(CCn4c(=S)[nH]c5ccccc54)CC3)nc3ccccc32)cc1 | 235
14 | CN(C)C(=O)[C@@H]1CS[C@@H](CS)C1 | 41.8 to 44.4
15 | O=C(Oc1ccc(F)cc1)[C@H]1CC[C@H](C(F)(F)C(F)(F)C(F)(F)C(F)(F)C(F)(F)C(F)(F)C(F)(F)F)CC1 | 93.6
16 | NC(=O)c1ccc(Oc2nccc(-c3c(-c4ccc(F)cc4)ncn3C3CCNCC3)n2)cc1 | 229 to 230
17 | COc1ccc(-c2ccc(C=NO)cc2)cc1OC1CCCC1 | 153
18 | CC(O)=C(C#N)C(=O)c1ccc(F)c(F)c1 | 51 to 54
19 | CS(=O)(=O)OCCOc1ccccc1OCC1CC1 | 90 to 91
20 | CO[C@@H]1C(S(=O)(=O)c2ccccc2)=C[C@H](C)[C@@H](O[Si](C)(C)C(C)(C)C)[C@@H](C)[C@@H]1O[Si](C)(C)C(C)(C)C | 94 to 96
21 | COc1cc(OC)c2c(c1)C(C)(C)C(c1ccc(OC)c(OC)c1)C(C)C(=O)O2 (stereo not drawn) | 163 to 165

Row | Structure (SMILES) | melting point [°C]
22 | COc1cc(-n2cc[nH]c2=O)c(Cl)cc1Cn1nc(-c2ccc(C(F)(F)F)cc2)oc1=O | 201 to 202
23 | O=c1c2cc(F)c(Cl)nc2n(-c2ccc(F)cc2F)c(=O)n1OCc1ccccc1 | 215 to 216
24 | Cc1ccc(C(=O)NC(NC(=S)Nc2cccnc2)C(F)(F)F)cc1 (stereo not drawn) | 185 to 186
25 | CCCCCCc1ccc(CCCCC(N)(CO)CO)cc1 | 99 to 102
26 | CCCCCCCc1noc(-c2ncn3c2CN(C)C(=O)c2c(Cl)cccc2-3)n1 | 108 to 110
27 | C#CCN1C(=O)COc2cc(F)c(N(C(=O)CCl)C(=O)C3=C(C(=O)OC)CCCC3)cc21 | 156 to 158
28 | O=C1Nc2ccccc2C1=Cc1ccccn1 | 204 to 205
29 | C=CCN1CC(C(=O)Nc2cc(C)nc(C)n2)CC2c3cccc4[nH]cc(c34)CC21 (stereo not drawn) | 182 to 186
30 | CC(C)(C)OC(=O)N[C@@H](Cc1ccc(OCc2ccccc2)cc1)C(=O)NCCN1CCCCC1 | 54 to 61
31 | Oc1ncn(-c2ccccc2)n1 | 281 to 282
32 | O=C(C=Cc1cccc(Oc2ccccc2)c1)NCCCCCC(=O)NO | 113 to 115
33 | CC(NC(=O)C1=C(C(=O)Nc2cc(OC3CCCC3)c(Cl)cc2F)CCCC1)c1cccc2ccccc12 (stereo not drawn) | 198 to 201
34 | COc1ccc(N2CCN(c3c(C)c(C)c4c(c3C)C(N3CCN(C)CC3)C(C)(C)O4)CC2)cc1 (stereo not drawn) | 94 to 96
35 | O=C(CCc1cccnc1)NCCCCC1CCN(S(=O)(=O)c2ccc3ccccc3c2)CC1 | 103 to 105
36 | O=C1CCc2cc(OCC(F)(F)C(F)(F)F)ccc21 | 52 to 54
37 | CC(C)(C)C(O)(COc1ccccc1)c1cncnc1 (stereo not drawn) | 127 to 129
38 | C=CS(=O)(=O)CS(=O)(=O)C=C | 59 to 61
39 | c1cc(CN2CCCCC2)cc(OCCCCCNc2nc3ccccc3s2)c1 | 140 to 145
40 | O=C(Oc1ccc2cc(CN3CCCC3)ccc2c1)N1CCC(c2ccc(F)cc2)CC1 | 106 to 108
41 | Cn1cc(OCC(F)(F)F)c(=O)c(-c2cccc(C(F)(F)F)c2)c1 | 97 to 99
42 | CCCCCCCCOc1ccc(-c2ncc(O)cn2)c(F)c1F | 84 to 85

Row | Structure (SMILES) | melting point [°C]
43 | c1ccc(C2CN(CCCc3cccnc3)Cc3c2[nH]c2ccccc32)cc1 (stereo not drawn) | 204 to 206
44 | CN(NC(=O)c1ccccc1C(=O)O)c1nc(-c2ccccc2)cs1 | 122 to 124
45 | N#CC1=C(Nc2cc(F)cc(F)c2)CCC1 | 113 to 115
46 | CCC1(CCCCN2CCN(c3ccccn3)CC2)C(=O)Nc2c(Cl)cc(Cl)cc21 (stereo not drawn) | 144 to 146
47 | O=C(NCc1cccnc1)Nc1ccc([N+](=O)[O-])cc1 | 220 to 222
48 | Cc1oc(-c2ccccc2)nc1C(O)COc1ccc(CC2SC(=N)NC2=O)cc1 (stereo not drawn) | 238 to 239
49 | CNC(=O)ON=C(C)CSC(F)(F)F | 56 to 58
50 | O=c1nc(-c2cccc(Cl)c2)c2cc(C3(c4ccc(Cl)cc4)OCCO3)ccc2[nH]1 | 220
51 | O=c1cccc(-c2nc(=O)c3ccccc3s2)[nH]1 | 214 to 215
52 | COc1ccc2[nH]cc(C3=CCN(C)CC3)c2n1 | 203
53 | O=c1oc2c(O)cccc2c(O)c1-c1ccccc1 | 220
54 | COc1ccc(C(=O)c2ccc(OCC(=O)O)c(Cl)c2Cl)cc1 | 158 to 159
55 | O=S1(=O)c2cccc3cccc(c23)N1CCCN1CCN(c2ccccc2O)CC1 | 128
56 | OC(CN1CCC(CCOC(c2ccccc2)c2ccccc2)C(O)C1)c1ccc(F)cc1 (stereo not drawn) | 84 to 86
57 | CNc1nc2c(c(N3CCN(C=O)CC3)n1)SCCC2 | 149 to 151
58 | CC(C)[C@H]1C(=O)OCN1C(=O)OC(C)(C)C | 43 to 45
59 | O=c1[nH]c2ccc(F)cc2c(=O)n1CCCN1CC=C(c2ccc(Cl)cc2)CC1 | 192 to 193
60 | CN(C1CCN(c2ncc3ncnc(Nc4ccc(F)c(Cl)c4)c3n2)CC1)S(C)(=O)=O | 225 to 227
61 | CC(=O)Nc1ccc(OCc2nc3ccc(F)cc3s2)cc1 | 204 to 205
62 | O=C1NC(=O)C(Cc2ccc(OCCc3c[nH]c4ccccc34)cc2)S1 (stereo not drawn) | 42.6 to 44.5

Further lines, results first:

Row | melting point [°C] | Structure (SMILES)
63 | 149 | CCOC(=O)N1CCC(Nc2nc3cccnc3n2Cc2ccco2)CC1
64 | 93 to 96 | CC(C)NC(=O)N1C2=NC(C)(C)N(C)C(=O)N2c2ccccc21
65 | 99 to 111 | CCNC(=O)c1ccccc1Nc1nc(Nc2cc3c(cc2OC)CCN(CC(=O)N(C)C)CC3)ncc1Cl
66 | 88 to 90 | CCCCCCCCCCCCCCCCNc1cc(O)ccc1OCC
67 | 87 to 88 | CCCc1c(OCCCOc2ccc(C(=O)OCC)cc2F)ccc(C(C)=O)c1O
68 | 110 | COc1cc(C(=O)NCCc2ccc(F)cc2)cnc1C(=O)O
69 | 70 to 71 | Cc1ccc(S(=O)(=O)OCC2CCc3nc(C)sc3C2)cc1 (stereo not drawn)
70 | > 300 | COC(=O)CC(=O)NCc1cc(Br)cc2[nH]c(=O)c(=O)[nH]c12
71 | 208 to 225 | CCNC(=O)c1ccc(N2CCN(Cc3cc4c(c(OC)c3)OCC(=O)N4)CC2)c(C)c1
72 | 140 | CC(C)(C)C(=O)N[C@@H](CS)C(=O)O
73 | 127 to 131 | Cc1cc(C#N)ccc1N1CCN(C(=O)OC(C)(C)C)CC1
74 | 200 to 202 | CCC1(NC(=O)c2cc(OC)ccn2)CCCCn2c1nc(-c1ccncn1)cc2=O (racemic)
75 | 73 to 75 | COC(=O)Cc1ccccc1N(Cc1ccc(Cl)cc1)S(C)(=O)=O
76 | 80 to 82 | CCC(CC)Nc1c(N)cc(C)c(C)c1[N+](=O)[O-]
77 | 100 to 111 | COc1ccc(C2CNCCc3c2cc(OC)c(OC)c3C)cc1 (stereo not drawn)
78 | 92 to 94 | Cc1nc(Br)sc1C(=O)NCc1ccccc1
79 | 211 to 213 | CCc1c(C(=O)c2cc(C)cc(C)c2)n(CCC2=CCCC2)c(=O)[nH]c1=O
80 | 134 to 138 | CC(C)c1cccc(C(C)C)c1NC(=O)[C@H](C)NC(c1ccccc1)c1ccccc1

Row | melting point [°C] | Structure (SMILES)
81 | 226 | CC(C)(C)c1cc(Br)c2cc(C(C)(C)C)cc(Br)c2c1
82 | 201 to 202 | CC(=O)N1CCC2(CC1)CC(=O)c1c(ccc([N+](=O)[O-])c1O)O2
83 | 204 to 205 | CCS(=O)c1nn(-c2ccccc2)c(=O)c2c(N)scc12 (stereo not drawn)
84 | 69 | CSC(=C[N+](=O)[O-])NC(C)C(C)(C)C (stereo not drawn)
85 | 226 | C#CCCCC1(S(=O)(=O)c2ccc(C)cc2)SC(=O)NC1=O (stereo not drawn)
86 | 164 to 165 | O=C(O)Cc1cccc(C(=O)c2ccc(Cl)cc2)c1[N+](=O)[O-]
87 | 143 | COC(=O)c1ccc(Cc2cc3cc(Cl)ccc3n2S(C)(=O)=O)cc1
88 | 72 to 73 | CCCN(CCC)Cn1cnc2c1c(=O)n(C)c(=O)n2C
89 | 243 to 247 | CC1(N)CN(c2c(F)c(N)c3c(=O)c(C(=O)O)cn(C4CC4)c3c2F)C1
90 | 112 to 115 | Cc1onc(-c2ccc(-c3cscn3)cc2)c1-c1ccc(S(N)(=O)=O)cc1
91 | 72 to 73 | CC(C)Oc1ccc(CCCCC2SC(=O)NC2=O)cc1 (stereo not drawn)
92 | 204 to 206 | CC(C)CC(NC(=O)c1cc(O)c2c(c1)C(=O)c1cccc(O)c1C2=O)C(=O)O (stereo not drawn)
93 | 165 to 168 | COc1cc(C)nc(NC(=O)NS(=O)(=O)c2cccnc2Cl)n1
94 | 174 | CCOC(=O)N(Cn1cc(Cl)cnc1=O)c1ccccc1
95 | 177 to 178 | CC(C)(Cc1ccc(OCC(=O)O)cc1)NS(=O)(=O)c1ccc(Cl)cc1
96 | 180 to 183 | CCSc1nc(N)c(C(N)=S)s1
97 | 154 to 155 | CCCCCCCCS(=O)(=O)Nc1cc(C(=O)Nc2ccccc2)ccc1OC
98 | 187 to 188 | Cc1ccccc1-n1ccc2c(NCCO)nc3c(C)cccc3c21
